In one assay the target is T1, murine GOT1 (Mus musculus, UniProt P05201).
T1 construct: recombinant, C-terminal 6 His-tag
The assay is described as follows: microscale thermophoresis with labelled recombinant GOT1; supported by purified enzyme inhibition. The class given is binding. (MST reads how a fluorescent partner responds to local heating, with and without ligand.)

In assay [1] the target is GOT1 (aspartate transaminase 1, glutamic-oxaloacetic transaminase 1) (Homo sapiens, UniProt P17174). The assay can be described thus: microscale thermophoresis with labelled recombinant GOT1; supported by purified enzyme inhibition and kinetics, CETSA and DARTS. It is filed as binding.

Molecules are shown by their SMILES.

Results on one compound are retold here after article PMC6717386, “Aspulvinone O, a natural inhibitor of GOT1 suppresses pancreatic ductal adenocarcinoma cells growth by interfering glutamine metabolism” (Cell Communication and Signaling : CCS, 2019).

Sequence of GOT1 (aspartate transaminase 1, glutamic-oxaloacetic transaminase 1) (P17174 2-413): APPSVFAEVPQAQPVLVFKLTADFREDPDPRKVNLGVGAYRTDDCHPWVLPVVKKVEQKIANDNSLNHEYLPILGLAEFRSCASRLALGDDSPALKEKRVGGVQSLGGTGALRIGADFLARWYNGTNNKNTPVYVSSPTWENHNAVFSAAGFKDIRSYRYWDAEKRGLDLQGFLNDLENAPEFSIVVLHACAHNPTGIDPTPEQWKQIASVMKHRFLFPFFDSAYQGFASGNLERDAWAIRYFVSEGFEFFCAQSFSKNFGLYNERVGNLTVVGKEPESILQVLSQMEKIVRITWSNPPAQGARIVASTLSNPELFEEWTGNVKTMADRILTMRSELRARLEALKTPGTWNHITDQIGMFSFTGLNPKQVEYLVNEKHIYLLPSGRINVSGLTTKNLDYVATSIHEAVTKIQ
T1 sequence (P05201 2-413): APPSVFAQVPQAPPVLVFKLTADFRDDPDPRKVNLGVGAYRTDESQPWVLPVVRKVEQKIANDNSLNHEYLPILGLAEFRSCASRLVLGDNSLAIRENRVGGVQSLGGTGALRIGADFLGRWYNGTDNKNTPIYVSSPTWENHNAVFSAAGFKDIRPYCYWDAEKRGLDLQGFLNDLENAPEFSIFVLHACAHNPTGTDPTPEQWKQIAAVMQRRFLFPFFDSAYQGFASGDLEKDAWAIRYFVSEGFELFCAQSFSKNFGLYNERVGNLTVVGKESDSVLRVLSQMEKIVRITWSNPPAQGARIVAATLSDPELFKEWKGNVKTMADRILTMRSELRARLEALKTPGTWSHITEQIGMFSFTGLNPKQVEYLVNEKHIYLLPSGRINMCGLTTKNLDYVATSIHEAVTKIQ

Regarding `CC(C)=CCc1cc(/C=C2\OC(=O)C(c3cc(CC=C(C)C)c(O)cc3O)=C2O)ccc1O` [AO, 3-[2,4-Dihydroxy-5-(3-methyl-2-buten-1-yl)phenyl]-4-hydroxy-5-[[4-hydroxy-3-(3-methyl-2-buten-1-yl)phenyl]methylene]-2(5H)-furanone], the Kd on murine GOT1 was 5.42 ± 1.36 µM; in assay [1], 3.32 ± 1.18 µM.

Broadly, the Kd is the concentration at which binding is half-saturated.
